Source: article PMC10053807, “Natural Lipid Extracts as an Artificial Membrane for Drug Permeability Assay: In Vitro and In Silico Characterization” (Pharmaceutics, 2023)

Key:
[1] = PAMPA permeability, liver polar lipid extract (LPLE) membrane; conditions: for Papp at 4 h, 100 μM: bovine, PAMPA, pH 7.4, Mean Pe, n=3, * = not detected at acceptor side, value calculated from limit of detection; for Mean logPe: n=3
[2] = PAMPA permeability, comparison across the six natural lipid extract membranes; conditions: for dependence of permeability on the lipid extract (PCA biplot): compounds near the abscissa of the PCA biplot, Figure 12
[3] = PAMPA permeability, heart total lipid extract (HTLE) membrane; conditions: for Mean logPe / Papp at 4 h, 100 μM: Heart total lipid extract membrane, n=3; for Papp at 4 h, 100 μM: bovine, PAMPA, pH 7.4, Mean Pe, * = not detected at acceptor side, value calculated from limit of detection; for PAMPA permeability on HTLE: pH 7.4, 4 h, 37 °C, in words (PCA biplot, Figure 11B)
[4] = PAMPA permeability, liver total lipid extract (LTLE) membrane; conditions: for Mean logPe: Liver total lipid extract membrane, n=3; for Papp at 4 h, 100 μM: bovine, PAMPA, pH 7.4
[5] = PAMPA permeability, brain total lipid extract (BTLE) membrane; conditions: for Papp at 4 h, 100 μM: pig, PAMPA, pH 7.4
[6] = PAMPA permeability, brain polar lipid extract (BPLE) membrane; conditions: for Papp at 4 h, 100 μM: pig, PAMPA
[7] = PAMPA permeability, heart polar lipid extract (HPLE) membrane; conditions: for Mean logPe: Heart Polar lipid extract membrane, n=3; for Papp at 4 h, 100 μM: bovine, PAMPA, pH 7.4
[8] = in vitro; conditions: bovine, PAMPA, pH 7.4
[9] = Brain total lipid extract membrane, n=3
[10] = Brain Polar lipid extract membrane, n=3

Compound	Papp at 4 h, 100 μM [1]	Mean logPe [1]	dependence of permeability on the lipid extract (PCA biplot) [2]	Mean logPe [3]	Papp at 4 h, 100 μM [3]	Mean logPe [4]	Papp at 4 h, 100 μM [4]	Mean logPe [5, 9]	Papp at 4 h, 100 μM [5]	Mean logPe [6, 10]	Papp at 4 h, 100 μM ([6]; pH 7.4)	Mean logPe [7]	Papp at 4 h, 100 μM [7]	total-polar permeability comparison ([2]; heart, liver and brain extracts, Figure 10A–C)	PAMPA permeability on HTLE [3]	Mean Pe ([5]; Brain total lipid extract membrane, n=3, * = not detected at acceptor side, value calculated from limit of detection)	Papp at 4 h, 100 μM [8]	Papp at 4 h, 100 μM ([6]; pH 7.4, Mean logPe, Brain Polar lipid extract membrane, n=3)	total-polar permeability comparison, brain extracts ([2]; BTLE vs BPLE)	total-polar permeability comparison, liver extracts ([2]; LTLE vs LPLE)
O=C1NC(=O)C(c2ccccc2)(c2ccccc2)N1 [phenytoin]	34.6 ×10⁻⁶ cm/s	-4.46	independent of the investigated lipids	-4.84	14.7 ×10⁻⁶ cm/s	-4.35	44.7 ×10⁻⁶ cm/s	-4.46	35.3 ×10⁻⁶ cm/s	-4.57	27.2 ×10⁻⁶ cm/s	-4.42	38.4 ×10⁻⁶ cm/s	–	–	–	–	–	–	–
CCCCOc1cc(C(=O)NCCN(CC)CC)c2ccccc2n1 [dibucaine]	39.9 ×10⁻⁶ cm/s	-4.40	–	-4.44	37.3 ×10⁻⁶ cm/s	-4.56	28.6 ×10⁻⁶ cm/s	-4.40	–	-4.19	65 ×10⁻⁶ cm/s	-4.31	48.6 ×10⁻⁶ cm/s	higher permeability in polar lipids	high permeability	40.24 10-6 cm/s	–	–	–	–
CC(=O)CC(c1ccccc1)c1c(O)c2ccccc2oc1=O (centres unmarked) [warfarin]	7.48 ×10⁻⁶ cm/s	-5.14	–	–	0.29 ×10⁻⁶ cm/s	-4.86	13.9 ×10⁻⁶ cm/s	-5.62	2.43 ×10⁻⁶ cm/s	–	0.47 ×10⁻⁶ cm/s	-5.50	3.25 ×10⁻⁶ cm/s	–	low	–	0.891 ×10⁻⁶ cm/s	1.41 ×10⁻⁶ cm/s	–	–
Cc1c(OCC(F)(F)F)ccnc1C[S+]([O-])c1nc2ccccc2[nH]1 (centres unmarked) [lansoprazole]	24.4 ×10⁻⁶ cm/s	-4.62	independent of the investigated lipids	-4.67	21.9 ×10⁻⁶ cm/s	-4.21	61.9 ×10⁻⁶ cm/s	-4.54	28.6 ×10⁻⁶ cm/s	-4.58	26.6 ×10⁻⁶ cm/s	-4.74	18 ×10⁻⁶ cm/s	–	–	–	–	–	–	–
CC(C)C(=O)Nc1ccc([N+](=O)[O-])c(C(F)(F)F)c1 [flutamide]	29.4 ×10⁻⁶ cm/s	-4.54	–	-4.40	41.8 ×10⁻⁶ cm/s	-4.32	47.9 ×10⁻⁶ cm/s	-4.45	35.5 ×10⁻⁶ cm/s	-4.24	58.1 ×10⁻⁶ cm/s	-4.30	50.3 ×10⁻⁶ cm/s	–	high permeability	–	–	–	higher in the brain polar extract	higher in the liver total extract
